We go through 1 molecule from patent publication US20020035264A1, “Ophthalmic formulation of a selective cyclooxygenase-2 inhibitory drug” (priority 2000, published 2002).

The nature of this data set: Ocular versus oral delivery of valdecoxib nanoparticle suspensions; drug concentration in eye tissues and plasma by LC-MS. The class given is in vivo, New Zealand white rabbits. Particulars: rabbit. As for the experimental part:
Oral and ophthalmic suspensions of valdecoxib nanoparticles were prepared. […] The two carrageenan excipients are both ι-carrageenans with slightly different chemical and physical properties.
Eighteen male New Zealand white rabbits weighing from 1.8-2.5 kg were provided as test animals and divided into three lots containing six rabbits each.
Selected eye tissues, aqueous humor, bulbar conjunctiva, cornea, eyelids, vitreous humor and sclera, were excised at the time of sacrifice, weighed directly into tared vials, solubilized and/or diluted as necessary, and analyzed by HPLC-MS. Just prior to sacrifice, 0.5 mL of a blood sample was collected from the ear central artery via a syringe, placed into a K2-EDTA vacutainer, mixed gently and stored on ice up to one hour prior to centrifuging to separate the plasma. The plasma was stored at −10° C. or colder until analysis.

Where [1] appears, read: four hours after administration, FIGS. 2 and 3.

“Also recorded” adds a separate entry of the source.

Turning to `Cc1onc(-c2ccccc2)c1-c1ccc(S(N)(=O)=O)cc1` [valdecoxib, 4-[5-methyl-3-phenylisoxazol-4-yl]-benzenesulfonamide], under setting [1], the “delivery of the drug to the eye (conjunctiva, cornea, aqueous humor concentration), ocular versus oral administration” value is reported as “much more effective in delivering the drug to the eye than oral administration” and the “systemic (plasma) concentration of the drug, ocular versus oral administration” value is recorded as “avoids the high systemic (plasma) concentration”. For the same molecule, the “concentration of the drug in the conjunctiva versus time, ocular versus oral delivery” value (single ocular dose 25 μL ophthalmic suspension per eye (about 0.1 mg) vs oral 0.5 mg/kg, 0.5, 2 and 4 hours, FIG. 1, 0.5 mg/kg) is “much higher initial concentration; also recorded: maintained this higher concentration over time”.
